Data published in patent US8921405B2, “Compounds” (Orexo AB, priority 2009, dated 2014).

What follows are compounds tested against T1, recombinant human mPGES-1 (Homo sapiens, UniProt O14684) (assay: mPGES-1 HTRF assay (inhibition of PGE2 formation from PGH2)). Details: HTRF assay.
T1 construct: made in house; host or cells: Rosetta E. coli (membrane/microsome fraction)
T1 sequence (O14684 1-152): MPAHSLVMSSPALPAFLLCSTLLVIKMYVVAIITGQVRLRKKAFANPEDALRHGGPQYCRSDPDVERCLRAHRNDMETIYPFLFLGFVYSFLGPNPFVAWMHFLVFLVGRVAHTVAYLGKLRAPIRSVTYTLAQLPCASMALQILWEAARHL
Assay type: biochemical
In short: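 Microsomes of E. coli expressing human mPGES-1, in 0.1 M KPi pH 7.4 with 2.5 mM GSH, preincubated 25 min at room temperature with inhibitor, then given PGH2 for 1 min before FeCl2 acidic stop. PGE2 quantified by HTRF (665/620 nm ratio) against synthetic PGE2 standard curve; percent inhibition versus controls.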
An IC50 of 5 nM was found for `Cn1c(Nc2cc(CNC(=O)C(C)(C)C)ccc2Cl)nc2cc(C(=O)N[C@H]3CC[C@H](C(F)(F)F)CC3)c(OCCF)cc21` [Example 97, N-(trans-4-Trifluoromethyl-cyclohex-1-yl)-1-methyl-2-(2-chloro-5-{[(tert-butylcarbonyl)-amino]-methyl}-phenylamino)-6-(2-fluoro-ethoxy)-1H-benzimidazole-5-carboxylic acid amide] in this work. An IC50 of 6 nM was found for `Cn1c(Nc2cc(CNC(=O)C(C)(C)C)ccc2Cl)nc2cc(C(=O)N[C@H]3CC[C@H](C(F)(F)F)CC3)c(OCC(F)(F)F)cc21` [Example 98, N-(trans-4-Trifluoromethyl-cyclohex-1-yl)-1-methyl-2-(2-chloro-5-{[(tert-butylcarbonyl)-amino]-methyl}-phenylamino)-6-(2,2,2-trifluoro-ethoxy)-1H-benzimidazole-5-carboxylic acid amide] in this work. An IC50 greater than 100 nM was found for `COc1ccc(CNC(=O)C(C)(C)C)cc1Nc1nc2cc(C(=O)N[C@H]3CC[C@H](C(F)(F)F)CC3)c(Cl)cc2[nH]1` [Example 99, N-(trans-4-Trifluoromethyl-cyclohex-1-yl)-2-(2-methoxy-5-{[(tert-butylcarbonyl)-amino]-methyl}-phenylamino)-6-chloro-1H-benzimidazole-5-carboxylic acid amide] in this work. An IC50 of 5 nM was found for `CC(C)(C)C(=O)NCc1ccc(Cl)c(Nc2nc3cc(C(=O)Nc4ccc(Br)cc4)c(OCC(F)F)cc3n2CC(F)F)c1` [Example 100, N-(4-Bromo-phenyl)-2-(2-chloro-5-{[(tert-butylcarbonyl)-amino]-methyl}-phenylamino)-6-(2,2-difluoro-ethoxy)-1-(2,2-difluoroethyl)-1H-benzimidazole-5-carboxylic acid amide] in this work.
